This data set deals with cancer cells. Put plainly: MTT cytotoxic assay of esterification products (Cytotoxicity activity). To be noted: compounds isolated with HPLC. It counts as cell-based, human. A digest of the protocol: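 Cytotoxicity was read by MTT (Carmichael method, modified), with cells seeded 24 h ahead of treatment. Sixteen human cancer lines spanning bone, lung, bladder, ovary, colon, pancreas, prostate, skin, mouth, kidney, breast, liver, brain, leukemia and cervix were used. Test samples were acyl chloride esterification products of triterpenes, as mixtures or HPLC-purified compounds.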

Where [1] appears, read: E4A esterified with Crotonoyl chloride (Cro = Crotonoyl).
The mark [2] stands for this setting: E4A esterified with Cinnamoyl chloride (Cin = Cinnamoyl).

Take `CC=CC(=O)OCC1(C)C(OC(=O)C=CC)CCC2(C)C1CCC1(C)C2CC=C2C3CC(C)(C)C(O)C(O)C3(CO)C(O)CC21C` (stereo not drawn) [Compound I31]: the Cytotoxicity activity result under setting [1] was “moderate”.
As for `CC=CC(=O)OCC1(C)C(O)CCC2(C)C1CCC1(C)C2CC=C2C3CC(C)(C)C(O)C(O)C3(CO)C(OC(=O)C=CC)CC21C` (stereo not drawn) [Compound I32], the Cytotoxicity activity result under setting [1] is on record as “moderate”.
In the case of `CC1(C)CC2C3=CCC4C5(C)CCC(O)C(C)(COC(=O)C=Cc6ccccc6)C5CCC4(C)C3(C)CC(O)C2(CO)C(O)C1O` (stereo not drawn) [Compound J1], under setting [2], the Cytotoxicity activity result is “moderate”.
For the molecule `CC1(C)CC2C3=CCC4C5(C)CCC(O)C(C)(CO)C5CCC4(C)C3(C)CC(O)C2(COC(=O)C=Cc2ccccc2)C(O)C1O` (stereo not drawn) [Compound J2], the Cytotoxicity activity entry under setting [2] is “moderate”.
Turning to `CC1(C)CC2C3=CCC4C5(C)CCC(O)C(C)(COC(=O)C=Cc6ccccc6)C5CCC4(C)C3(C)CC(O)C2(COC(=O)C=Cc2ccccc2)C(O)C1O` (stereo not drawn) [Compound J3], under setting [2], the Cytotoxicity activity result is listed as “strong”.
For the molecule `CC1(C)CC2C3=CCC4C5(C)CCC(O)C(C)(COC(=O)C=Cc6ccccc6)C5CCC4(C)C3(C)CC(O)C2(COC(=O)C=Cc2ccccc2)C(O)C1OC(=O)C=Cc1ccccc1` (stereo not drawn) [Compound J4], the Cytotoxicity activity entry under setting [2] is reported as “moderate”.
With `CC1(C)CC2C3=CCC4C5(C)CCC(O)C(C)(COC(=O)C=Cc6ccccc6)C5CCC4(C)C3(C)CC(O)C2(COC(=O)C=Cc2ccccc2)C(OC(=O)C=Cc2ccccc2)C1O` (stereo not drawn) [Compound J5], the Cytotoxicity activity result under setting [2] is listed as “moderate”.
On the same count and under the same terms, in the case of `CC1(C)CC2C3=CCC4C5(C)CCC(OC(=O)C=Cc6ccccc6)C(C)(COC(=O)C=Cc6ccccc6)C5CCC4(C)C3(C)CC(O)C2(COC(=O)C=Cc2ccccc2)C(O)C1O` (stereo not drawn) [Compound J6] it was “moderate”; in that of `CC1(C)CC2C3=CCC4C5(C)CCC(O)C(C)(COC(=O)C=Cc6ccccc6)C5CCC4(C)C3(C)CC(OC(=O)C=Cc3ccccc3)C2(COC(=O)C=Cc2ccccc2)C(O)C1O` (stereo not drawn) [Compound J7], “moderate”; in that of `CC1(C)CC2C3=CCC4C5(C)CCC(O)C(C)(COC(=O)C=Cc6ccccc6)C5CCC4(C)C3(C)CC(O)C2(COC(=O)C=Cc2ccccc2)C(OC(=O)C=Cc2ccccc2)C1OC(=O)C=Cc1ccccc1` (stereo not drawn) [Compound J8], “weak”.
Regarding `CC1(C)CC2C3=CCC4C5(C)CCC(OC(=O)C=Cc6ccccc6)C(C)(COC(=O)C=Cc6ccccc6)C5CCC4(C)C3(C)CC(O)C2(COC(=O)C=Cc2ccccc2)C(OC(=O)C=Cc2ccccc2)C1O` (stereo not drawn) [Compound J9], the Cytotoxicity activity result under setting [2] is “weak”.
For the molecule `CC1(C)CC2C3=CCC4C5(C)CCC(OC(=O)C=Cc6ccccc6)C(C)(COC(=O)C=Cc6ccccc6)C5CCC4(C)C3(C)CC(OC(=O)C=Cc3ccccc3)C2(COC(=O)C=Cc2ccccc2)C(O)C1O` (stereo not drawn) [Compound J10], under setting [2], the Cytotoxicity activity result is reported as “weak”.
With `CC1(C)CC2C3=CCC4C5(C)CCC(OC(=O)C=Cc6ccccc6)C(C)(COC(=O)C=Cc6ccccc6)C5CCC4(C)C3(C)CC(O)C2(COC(=O)C=Cc2ccccc2)C(O)C1OC(=O)C=Cc1ccccc1` (stereo not drawn) [Compound J11], under setting [2], the Cytotoxicity activity result is reported as “weak”.
Regarding `CC1(C)CC2C3=CCC4C5(C)CCC(O)C(C)(COC(=O)C=Cc6ccccc6)C5CCC4(C)C3(C)CC(OC(=O)C=Cc3ccccc3)C2(COC(=O)C=Cc2ccccc2)C(OC(=O)C=Cc2ccccc2)C1O` (stereo not drawn) [Compound J12], the Cytotoxicity activity entry under setting [2] is on record as “weak”.
Still for that read-out and setting: in the case of `CC1(C)CC2C3=CCC4C5(C)CCC(O)C(C)(COC(=O)C=Cc6ccccc6)C5CCC4(C)C3(C)CC(OC(=O)C=Cc3ccccc3)C2(COC(=O)C=Cc2ccccc2)C(O)C1OC(=O)C=Cc1ccccc1` (stereo not drawn) [Compound J13] it was “weak”; in that of `CC1(C)CC2C3=CCC4C5(C)CCC(OC(=O)C=Cc6ccccc6)C(C)(COC(=O)C=Cc6ccccc6)C5CCC4(C)C3(C)CC(O)C2(COC(=O)C=Cc2ccccc2)C(OC(=O)C=Cc2ccccc2)C1OC(=O)C=Cc1ccccc1` (stereo not drawn) [Compound J15], “weak”.
Still for that read-out and setting: in the case of `CC1(C)CC2C3=CCC4C5(C)CCC(O)C(C)(COC(=O)C=Cc6ccccc6)C5CCC4(C)C3(C)CC(OC(=O)C=Cc3ccccc3)C2(COC(=O)C=Cc2ccccc2)C(OC(=O)C=Cc2ccccc2)C1OC(=O)C=Cc1ccccc1` (stereo not drawn) [Compound J16] it was “weak”; in that of `CC1(C)CC2C3=CCC4C5(C)CCC(OC(=O)C=Cc6ccccc6)C(C)(COC(=O)C=Cc6ccccc6)C5CCC4(C)C3(C)CC(OC(=O)C=Cc3ccccc3)C2(COC(=O)C=Cc2ccccc2)C(O)C1OC(=O)C=Cc1ccccc1` (stereo not drawn) [Compound J17], “weak”.
`CC1(C)CC2C3=CCC4C5(C)CCC(OC(=O)C=Cc6ccccc6)C(C)(COC(=O)C=Cc6ccccc6)C5CCC4(C)C3(C)CC(OC(=O)C=Cc3ccccc3)C2(COC(=O)C=Cc2ccccc2)C(OC(=O)C=Cc2ccccc2)C1O` (stereo not drawn) [Compound J18]: the Cytotoxicity activity result under setting [2] is listed as “weak”.
For the molecule `CC1(C)CC2C3=CCC4C5(C)CCC(OC(=O)C=Cc6ccccc6)C(C)(COC(=O)C=Cc6ccccc6)C5CCC4(C)C3(C)CC(OC(=O)C=Cc3ccccc3)C2(COC(=O)C=Cc2ccccc2)C(OC(=O)C=Cc2ccccc2)C1OC(=O)C=Cc1ccccc1` (stereo not drawn) [Compound J19], the Cytotoxicity activity entry under setting [2] is reported as “none”.
Turning to `CC1(C)CC2C3=CCC4C5(C)CCC(O)C(C)(CO)C5CCC4(C)C3(C)CC(O)C2(COC(=O)C=Cc2ccccc2)C(OC(=O)C=Cc2ccccc2)C1OC(=O)C=Cc1ccccc1` (stereo not drawn) [Compound J20], the Cytotoxicity activity entry under setting [2] is reported as “moderate”.
With `CC1(C)CC2C3=CCC4C5(C)CCC(O)C(C)(COC(=O)C=Cc6ccccc6)C5CCC4(C)C3(C)CC(O)C2(CO)C(OC(=O)C=Cc2ccccc2)C1OC(=O)C=Cc1ccccc1` (stereo not drawn) [Compound J21], the Cytotoxicity activity entry under setting [2] is “moderate”.
Still for that read-out and setting: in the case of `CC1(C)CC2C3=CCC4C5(C)CCC(O)C(C)(CO)C5CCC4(C)C3(C)CC(OC(=O)C=Cc3ccccc3)C2(CO)C(OC(=O)C=Cc2ccccc2)C1OC(=O)C=Cc1ccccc1` (stereo not drawn) [Compound J22] it was “moderate”; in that of `CC1(C)CC2C3=CCC4C5(C)CCC(OC(=O)C=Cc6ccccc6)C(C)(CO)C5CCC4(C)C3(C)CC(O)C2(CO)C(OC(=O)C=Cc2ccccc2)C1OC(=O)C=Cc1ccccc1` (stereo not drawn) [Compound J23], “moderate”; in that of `CC1(C)CC2C3=CCC4C5(C)CCC(O)C(C)(CO)C5CCC4(C)C3(C)CC(O)C2(CO)C(OC(=O)C=Cc2ccccc2)C1OC(=O)C=Cc1ccccc1` (stereo not drawn) [Compound J24], “moderate”.
As to `CC1(C)CC2C3=CCC4C5(C)CCC(O)C(C)(CO)C5CCC4(C)C3(C)CC(O)C2(COC(=O)C=Cc2ccccc2)C(O)C1OC(=O)C=Cc1ccccc1` (stereo not drawn) [Compound J25], the Cytotoxicity activity result under setting [2] is on record as “moderate”.
On to `CC1(C)CC2C3=CCC4C5(C)CCC(O)C(C)(CO)C5CCC4(C)C3(C)CC(O)C2(COC(=O)C=Cc2ccccc2)C(OC(=O)C=Cc2ccccc2)C1O` (stereo not drawn) [Compound J26], for which the Cytotoxicity activity entry under setting [2] is on record as “moderate”.
Still for that read-out and setting: in the case of `CC1(C)CC2C3=CCC4C5(C)CCC(OC(=O)C=Cc6ccccc6)C(C)(CO)C5CCC4(C)C3(C)CC(O)C2(COC(=O)C=Cc2ccccc2)C(O)C1O` (stereo not drawn) [Compound J27] it was “moderate”.
For the molecule `CC1(C)CC2C3=CCC4C5(C)CCC(O)C(C)(CO)C5CCC4(C)C3(C)CC(OC(=O)C=Cc3ccccc3)C2(COC(=O)C=Cc2ccccc2)C(O)C1O` (stereo not drawn) [Compound J28], the Cytotoxicity activity entry under setting [2] was “moderate”.
With `CC1(C)CC2C3=CCC4C5(C)CCC(O)C(C)(COC(=O)C=Cc6ccccc6)C5CCC4(C)C3(C)CC(O)C2(CO)C(O)C1OC(=O)C=Cc1ccccc1` (stereo not drawn) [Compound J29], the Cytotoxicity activity result under setting [2] is listed as “moderate”.

The values are drawn from patent publication US20230340012A1, “NATURAL AND SYNTHETIC COMPOUNDS FOR TREATING CANCER AND OTHER DISEASES” (PACIFIC ARROW LIMITED, priority 2009, published 2023).
